Results reported in patent US9839642B2, “Beta-tetrazolyl-propionic acids as metallo-beta-lactamase inhibitors” (priority 2014, dated 2017).
Like-named read-outs stand apart in the source and are kept apart here.

Assays:
[1] = test system: Escherichia coli expressing NDM-1 (CLB30016); experiment: Antibiotic potentiation activity: synergistic concentration (MITC95) with imipenem, growth by OD600; format: cell-based
Method in brief: (§1)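 Colonies from overnight agar plates (35 °C) were suspended in saline and diluted 1:100 into 1.1× CAMHB. Inhibitor (final 200 μM to 0.195 μM) was combined with imipenem at 1 or 4 μg/ml, incubated 22–24 h at 35 °C, and absorbance read; MITC95 is the lowest inhibitor concentration giving 95% growth inhibition.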

[2] = test system: Serratia marcescens expressing IMP-1 (CL5741); experiment: as above; format: cell-based
Method in brief: as §1

[3] = test system: Klebsiella pneumoniae expressing VIM-1 (IHMA599644); experiment: as above; format: cell-based
Method in brief: as §1

IMP-1 = IMP-1 (Serratia marcescens, UniProt P52699); experiment: Enzyme activity: determination of IC50, fluorescence assay with CCF2-FA substrate; format: biochemical; conditions: CCF2-FA 1.25 μM, 2 hours at 25° C., read-out: IMP1 IC50
IMP-1, sequence (P52699 19-246, looked up, species assumed): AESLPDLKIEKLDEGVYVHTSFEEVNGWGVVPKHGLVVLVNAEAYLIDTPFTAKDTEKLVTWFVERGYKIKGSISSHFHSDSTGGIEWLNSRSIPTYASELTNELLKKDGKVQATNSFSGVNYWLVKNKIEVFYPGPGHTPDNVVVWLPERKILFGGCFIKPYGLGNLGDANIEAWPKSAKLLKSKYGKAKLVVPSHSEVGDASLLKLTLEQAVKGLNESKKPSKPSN
Method in brief: (§2)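 Enzyme at 1 pM (NDM-1), 2 pM (IMP-1) or 30 pM (VIM-1) was incubated with inhibitor (20 μM to 0.00063 μM) and 1.25 μM CCF2-FA in 100 mM KH2PO4 pH 7, 0.005% Tween-20, 10 μM ZnSO4 for 2 hours at 25° C. Fluorescence was read at ex 405/em 460 nm; IC50 from 4-parameter fit.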

NDM-1 = NDM-1 (Klebsiella pneumoniae, UniProt C7C422); experiment: as above; format: biochemical; conditions: CCF2-FA 1.25 μM, 2 hours at 25° C., read-out: NDM1 IC50
NDM-1, sequence (C7C422 29-270, looked up, species assumed): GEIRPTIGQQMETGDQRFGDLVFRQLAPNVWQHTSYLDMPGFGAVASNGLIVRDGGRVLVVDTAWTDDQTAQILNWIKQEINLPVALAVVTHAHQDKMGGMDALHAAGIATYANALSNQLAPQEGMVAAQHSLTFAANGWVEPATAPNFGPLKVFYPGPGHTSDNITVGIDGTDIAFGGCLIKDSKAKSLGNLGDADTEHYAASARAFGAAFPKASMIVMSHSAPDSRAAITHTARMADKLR
Method in brief: as §2

VIM-1 = VIM-1 (Pseudomonas aeruginosa, UniProt A0A0F7KYQ8); experiment: as above; format: biochemical; conditions: CCF2-FA 1.25 μM, 2 hours at 25° C., read-out: VIM1 IC50
Method in brief: as §2

[4] = E. coli CLB30016 (NDM-1), 95% inhibition of growth
[5] = S. marcescens CL5741 (IMP-1), 95% inhibition of growth
[6] = K. pneumoniae IHMA599644 (VIM-1), 95% inhibition of growth
[7] = 95% inhibition of bacterial growth, strain CLB30016
[8] = 95% inhibition of bacterial growth, strain CL5741
[9] = 95% inhibition of bacterial growth, strain IHMA599644

Compound | NDM1 EC30016 MITC95 [1, 4] [µM] | IMP1 SM5741 MITC95 [2, 5] [µM] | VIM1 KP599644 MITC95 [3, 6] [µM] | IC50 (IMP-1; IMP-1 enzyme 2 pM) [nM] | IC50 (NDM-1; NDM-1 enzyme 1 pM) [nM] | IC50 (VIM-1; VIM-1 enzyme 30 pM) [nM] | NDM1 EC30016 MITC95 [1, 7] [µM] | IMP1 SM5741 MITC95 [2, 8] [µM] | VIM1 KP599644 MITC95 [3, 9] [µM] | IC50 (IMP-1; enzyme 2 pM) [nM] | IC50 (NDM-1; enzyme 1 pM) [nM] | IC50 (VIM-1; enzyme 30 pM) [nM]
CCC[C@H](C(=O)O)[C@H](Cc1ccc(C(=O)NCCO)cc1)c1nnn[nH]1 [Example 280, (2S)-2-[(1S)-2-{4-[(2-hydroxyethyl)carbamoyl]phenyl}-1-(1H-tetrazol-5-yl)ethyl]pentanoic acid] | 18.8 | 25 | 25 | 880 | 140 | 2.7 |  |  |  |  |  | 
CNC1CC=C(c2ccc(C[C@H](c3nn[nH]n3)[C@H](CC(C)C)C(=O)O)cc2F)CC1 (stereo partly drawn) [Example 451, 4′-((2S,3S)-3-carboxy-5-methyl-2-(2H-tetrazol-5-yl)hexyl)-2′-fluoro-N-methyl-2,3,4,5-tetrahydro-[1,1′-biphenyl]-4-aminium 2,2,2-trifluoroacetate] | 9.375 | 3.125 | 25 | 27.2 | 30.8 | 10.1 |  |  |  |  |  | 
CCC[C@H](C(=O)O)[C@H](Cc1ccc(N2CCN(c3ccncc3)CC2)cc1)c1nn[nH]n1 [Example 227, (2S)-2-[(1S)-2-[4-(4-pyridin-4-ylpiperazin-1-yl)phenyl]-1-(2H-tetrazol-5-yl)ethyl]pentanoic acid] |  |  |  |  |  |  | 16 | 12.5 | 75 | 380 | 54 | 51
CC(C)[C@H](C(=O)O)[C@H](Cc1ccc(-c2ccc3c(c2)CNC3)nc1)c1nnn[nH]1 [Example 76, (2S,3S)-4-(6-(isoindolin-5-yl)pyridin-3-yl)-2-isopropyl-3-(1H-tetrazol-5-yl)butanoic acid] |  |  |  |  |  |  | 9.4 | 37.5 | 18.8 | 2600 | 120 | 18
CCC[C@H](C(=O)O)[C@H](Cc1nnc(N)s1)c1nnn[nH]1 [Example 284, (S)-2-((S)-2-(5-amino-1,3,4-thiadiazol-2-yl)-1-(1H-tetrazol-5-yl)ethyl)pentanoic acid] | 25 | >200 | 38 | > 20000 | 13000 | 340 |  |  |  |  |  | 
CCC[C@H](C(=O)O)[C@H](Cc1ccc2nsnc2c1)c1nnn[nH]1 [Example 271, (2S)-2-[(1S)-2-(2,1,3-benzothiadiazol-5-yl)-1-(1H-tetrazol-5-yl)ethyl]pentanoic acid] | 6.2 | 50 | 12.5 | 650 | 84 | 1.1 |  |  |  |  |  | 
CC(C)C[C@H](C(=O)O)[C@H](Cc1cnc(NCCO)s1)c1nnn[nH]1 [Example 137, (S)-2-((S)-2-(2-((2-hydroxyethyl)amino)thiazol-5-yl)-1-(1H-tetrazol-5-yl)ethyl)-4-methylpentanoic acid] |  |  |  |  |  |  | 6.2 | 12.5 | 37 | 300 | 110 | 3.5
CC(C)C[C@H](C(=O)O)[C@H](Cc1ccc(-c2ccnc(N)c2)cn1)c1nn[nH]n1 [Example 179, (2S)-2-[(1S)-2-(2′-amino-3,4′-bipyridin-6-yl)-1-(2H-tetrazol-5-yl)ethyl]-4-methylpentanoic acid] |  |  |  |  |  |  | 12.5 | 38 | 50 | 1300 | 66 | 24
CCC[C@H](C(=O)[O-])[C@H](Cc1ccc(C2=CCC[N+](C)(C)C2)nc1)c1nnn[nH]1 [Example 293, (S)-2-((S)-2-(1′,1′-dimethyl-1′,2′,5′,6′-tetrahydro-[2,3′-bipyridin]-1′-ium-5-yl)-1-(1H-tetrazol-5-yl)ethyl)pentanoate] | 25 | 100 | 50 | 16000 | 2400 | 22 |  |  |  |  |  | 
CC(C)C[C@H](C(=O)O)[C@H](Cc1ccc(N2CCC(CNS(C)(=O)=O)CC2)nc1)c1nnn[nH]1 [Example 312, (2S)-4-methyl-2-[(1S)-2-[6-(4-{[(methylsulfonyl)amino]methyl}piperidin-1-yl)pyridin-3-yl]-1-(1H-tetrazol-5-yl)ethyl]pentanoic acid] | 9.4 | 31 | 150 | 250 | 42 | 48 |  |  |  |  |  | 
CCC[C@H](C(=O)O)[C@H](Cc1ccc(-c2ccc(N)nc2)cn1)c1nnn[nH]1 [Example 167, (2S)-2-[(1S)-2-(6′-amino-3,3′-bipyridin-6-yl)-1-(1H-tetrazol-5-yl)ethyl]pentanoic acid] |  |  |  |  |  |  | 9.4 | >200 | 100 | 5700 | 200 | 140
CCC[C@H](C(=O)O)[C@H](Cc1ccc(NC(C)CN(C)C)cc1)c1nn[nH]n1 (stereo partly drawn) [Example 224, (2S)-2-[(1S)-2-(4-{[2-(dimethylamino)-1-methylethyl]amino}phenyl)-1-(2H-tetrazol-5-yl)ethyl]pentanoic acid] |  |  |  |  |  |  | 25 | 18.8 | 50 | 1100 | 1000 | 82
CCC[C@H](C(=O)O)[C@H](Cc1ccc(F)cc1)c1nnn[nH]1 [Example 261, (2S)-2-[(1S)-2-(4-fluorophenyl)-1-(1H-tetrazol-5-yl)ethyl]pentanoic acid] | 9.4 | 12.5 | 12.5 | 910 | 110 | 3.8 |  |  |  |  |  | 
CCC[C@H](C(=O)O)[C@H](Cc1cccc(N2CCCC(O)C2)c1)c1nn[nH]n1 (stereo partly drawn) [Example 360, (2S)-2-[(1S)-2-[3-(3-hydroxypiperidin-1-yl)phenyl]-1-(2H-tetrazol-5-yl)ethyl]pentanoic acid] | 25 | 18.8 | 150 | 510 | 47 | 13 |  |  |  |  |  | 
CCC[C@H](C(=O)O)[C@H](Cc1cccc(-c2ccc3c(c2)CCC(N)C3)c1)c1nn[nH]n1 (stereo partly drawn) [Example 354, (2S)-2-[(1S)-2-[3-(6-amino-5,6,7,8-tetrahydronaphthalen-2-yl)phenyl]-1-(2H-tetrazol-5-yl)ethyl]pentanoic acid] | 9.4 | 4.7 | 9.4 | 310 | 13 | 1.4 |  |  |  |  |  | 
CC(C)CC(C(=O)O)[C@H](Cc1ccc(S(C)(=O)=O)cc1)c1nn[nH]n1 (stereo partly drawn) [Example 51, CAN-4-methyl-2-((S)-2-(4-(methylsulfonyl)phenyl)-1-(2H-tetrazol-5-yl)ethyl)pentanoic acid] |  |  |  |  |  |  | 75 | 25 | 150 | 540 | 180 | 25
